Data set [1] has as its system C-fibers of rabbit vagus nerve. Kind of data set: Sucrose-gap recording in the veratrinized region, C-fibers. The arrangement: species or system New Zealand white rabbit. How it is done:
(§1) Adult male New Zealand white rabbits (3±0.5 kg) were pretreated intramuscularly with a mixture of ketamine (200 mg), xylazine (20 mg) and atropine (0.4 mg) for sedation. Ten minutes after this treatment, the animals were anesthetized with diethyl ether. After cessation of respiration, a longitudinal skin incision was made, and the cervical portion of both vagus nerves was dissected. The vagus nerves were temporarily stored at room temperature (22° C.) in a beaker containing modified HEPES Liley (HL) solution stirred constantly by aeration with a mixture of 95% oxygen and 5% carbon dioxide.
(§2) The modified HL solution used for bathing the nerve and subsequent drug perfusion consisted of (in mM): NaCl, 118.0; KCl, 5.0; CaCl2 2H2 0, 2.0; MgCl2 6H2 0, 1.0; α-D(+)-glucose, 11.0; NaHC03, 25.0; and N-2-hydroxy-ethylpiperazine-N-2-ethanesulfonic acid (HEPES) buffer, 5.0 mM. The pH was adjusted to 7.4±0.05 by addition of 1 N NaOH. The perfusion solution was bubbled with a gas mixture of 95% oxygen and 5% carbon dioxide at a vigorous rate just before flowing onto the nerve. The pH was stabilized by the HEPES buffer and maintained at 7.4.
(§3) VTD free base (no. V-5754, lot 58F-7828, Sigma, St. Louis, Mo.) was stored in a desiccator below 0° C. and was used to prepare a 2 mM stock solution in dimethyl sulfoxide [DMSO], Fisher Scientific, lot 861316), which also was stored at below 0° C. VTD, a steroidal alkaloid (FIG. 2A) that is produced by certain lilies, has a solubility limited to approximately 10^-3 M in aqueous slat solutions [Kupchan and By, "The Veratrum Group," in Alkaloids, Vol. 10, Manske, R.H.F. (ed.), New York, Academic Press (1968), pp. 193-285]. The stock VTD solution was diluted to final concentrations of 0.2-10 μM by the addition of HL. The maximum equivalent content of DMSO is 0.5%, and in three control experiments we detected no change in electrophysiologic behavior with 1% DMSO.
Nerves were desheathed and mounted in an acrylic sucrose-gap chamber (FIG. 2C). We used a method after that described by Stampfli [Stampfli, R., Experientia 10:508-509 (1954); see also Rando et al., Mol. Pharmacol. 29:467-477 (1986)]. […] In contrast to the extracellular chamber described above, which measured APc in a drug-free segment after they had propagated through a VTD solution, the sucrose gap measured the behavior of the nerve membrane directly exposed to drug, the "veratrinized" nerve.
APc and the CRP were recorded with the same amplifier used for extracellular recording (see above), but passed both to the DC-coupled input of the storage oscilloscope (for APc) and to a strip-chart recorder (for CRP) (model 8376-20, Cole-Palmer). […]

The conditions of data set [2]: on average; cited from earlier work.
The nature of data set [3]: Toxic signs (salivation) in rats after sciatic nerve injection. It counts as in vivo, Male Sprague-Dawley rats. Conditions: for fraction salivating: 0.1 ml. The method, then:
Male Sprague-Dawley rats (200-250 g) were divided into 4 groups of 10 each. 0.1 ml of VTD alone at 0.2, 0.5 or 0.7 mM or vehicle (saline) was injected at the depression between the femoral head and the hip. The same animals were injected with VTD with epinephrine (EPI, 1:200,000) one week later, using the previously uninjected leg. Motor and sensory functions were rated by the respective monitoring of toe curling and/or foot dragging, and by testing the nocifensive withdrawal reflex to pinch of the foot pad of the injected hindlimb. Saline alone affected neither function.

Data set [4] relates to rabbit vagus nerve. Put plainly: Extracellular recording of compound action potentials (APc), vagus nerve as a whole. Further details: species or system New Zealand white rabbit. How it is done: as §1, §2, §3
The nerves were cleaned and desheathed by microdissection before mounting in an airtight chamber (FIG. 2B) [Gissen et al., Anesthesiology 53:467-474 (1980)]. Petroleum jelly (White Petrolatum, Denison Laboratories) seals separated a central, 11-mm length of the nerve from the lateral pools, used for stimulating and recording with electrodes made of platinum wire. The central section of the chamber (volume 0.25 ml) was perfused with HL solution at 0.5 ml.min.^-1. The lateral pools containing the moistened ends of the nerves adsorbed to the electrodes were filled with paraffin oil. […] Thus, measured APc s were conducted in nerve exposed to drug for half of the conduction pathway, and had been conducting through drug-free medium over a distance containing at least two or three nodes of Ranvier (in the fastest-conducting fibers), before reaching the recording electrodes. […]

For data set [5], the system named is rat sciatic nerve. Kind of data set: Motor block of rat sciatic nerve in vivo (toe curling and/or foot dragging). The arrangement: species or system Male Sprague-Dawley rats.

“Also recorded” adds a separate entry of the source.

For `COc1ccc(C(=O)OC2CCC3(C)C4CCC5C6(O)CC(O)C7(O)C(CN8CC(C)CCC8C7(C)O)C6(O)CC53OC24O)cc1OC` (stereo not drawn) [VTD, veratridine], the “C-fiber elevation after addition of VTD” value in data set [1] (0.5 μm VTD, single stimulus) is “unaffected”. The “Time for development of VTD-induced depolarization (VID) after stimulation” value in data set [1] (0.5 μm VTD, within about 100 ms) is listed as ≤ 100 ms. In addition, in data set [1] (after 1 hr in 2.0 μm VTD), the “Decay halftime of VTD-induced depolarization (VID)” value lay in the range of 3 to 4 s. Besides, the “Primary C-fiber elevations during cumulative VID” value in data set [1] (repetitive stimulation) is on record as “much smaller than were the elevations induced by single stimuli; also recorded: selectively reduced”. The “Fraction of drug molecules ionized” value in data set [2] is “more than 90%”. The “Toxic signs, including profuse salivation” value in data set [3] (0.5 and 0.7 mM VTD alone) was 14/20. For the same molecule, the results for the fraction salivating in data set [3] ([VTD] 0.2 mM), in data set [3] ([VTD] 0.5 mM) and in data set [3] ([VTD] 0.7 mM) were 0/10, 4/10 and 10/10, respectively. Also, the “Fiber preference of impulse inhibition” value in data set [4] (VTD alone, use-dependent) is reported as “highly preferential for C-fibers”. In data set [4] (after termination of rapid stimulation), the “Time to recover from VTD-induced use-dependent effects” value is “tens of seconds”. Further, the “Effect of VTD added to a nerve during recovery from bupivacaine” value in data set [4] (residual bupivacaine block) was “potentiated rather than antagonized the residual block”. Besides, the “Effect on impulses conducted in response to a single stimulus” value in data set [4] (single stimuli, 0.5 μM) was “only a small effect; also recorded: unaffected”. Further, in data set [5] (VTD alone, 0.2-0.7 mM, approximately), the “Duration of motor block (summary)” value was in the range of 100 to 300 min. In addition, the “fraction block, MOTOR” value in data set [5] ([VTD] 0.2 mM, 0.1 ml) is listed as 8/10; in data set [5] ([VTD] 0.7 mM, 0.1 ml), 5/10. Further, the “onset, MOTOR” value in data set [5] ([VTD] 0.2 mM, 0.1 ml, mean ± SEM) amounted to 13 ± 2 min. Further, in data set [5] (rat sciatic nerve), the “Duration of nerve block compared with bupivacaine and lidocaine” value is reported as “longer duration than both”.

(Values after patent publication US5288723A, “A composition and a method of using veratridine and epinephrine as a local anesthetic” (priority 1991, dated 1994).)
